Measurements: paper PMC10959927, “Platinum iodido drugs show potential anti-tumor activity, affecting cancer cell metabolism and inducing ROS and senescence in gastrointestinal cancer cells” (Communications Biology, 2024)
Several values for one entry are separate records, joined by “and”; a condition that tells them apart may be missing. Identical values can stand only once.

Tests used:
PANC1 cells = experiment: Seahorse XF OCR, ECAR and energy map; format: cell-based, human; parameters: Basal resp. / Maximal resp. / SRC: unit not given here; details: PANC1, IC50 24 h
Procedure: (§1) Oxygen Consumption Rate (OCR), Extra Cellular Acidification Rate (ECAR) and Energy map measurements. Cells were plated in XF HS Miniplates (Seahorse Bioscience) at a cellular density of 1 × 10^4 cells/well and incubated overnight. […] After an OCR baseline measurement, the minimum oxygen consumption was determined by adding 1.5 µM oligomycin (O) and the maximal respiration rate was assessed by adding 1 µM carbonyl cyanide p-trifluoro methoxyphenylhydrazone (FCCP, F). At the end of the experiment, the non-mitochondrial oxygen consumption was evaluated by adding both 0.5 µM rotenone (R) and antimycin (A). Experiments were run in a XF HS Mini analyzer (Seahorse Agilent), and raw data were normalized to total protein using a BCA protein assay kit (Cat. no. 23225, Thermo Scientific).

MKN45 cells = experiment: Seahorse XF OCR, ECAR and energy map; format: cell-based, human; parameters: Basal resp. / Maximal resp. / SRC: unit not given here
Procedure: as §1

CC(C)[NH][Pt@SP1]([I])([I])[NH]C(C)C [I6, cis-[PtI2(isopropylamine)2]]
OCR (PANC1 cells; time 1.53 min (I5) / 1.53 min (I6)): 159.562 pmoles/min/µg protein and 146.086 pmoles/min/µg protein and 145.09 pmoles/min/µg protein
OCR (PANC1 cells; time 8.03 min (I5) / 8.01 min (I6)): 147.434 pmoles/min/µg protein and 135.357 pmoles/min/µg protein and 133.103 pmoles/min/µg protein
OCR (PANC1 cells; time 14.5 min (I5) / 14.5 min (I6)): 143.038 pmoles/min/µg protein and 132.495 pmoles/min/µg protein and 129.978 pmoles/min/µg protein
OCR (PANC1 cells; time 21.08 min (I5) / 21.07 min (I6)): 66.5745 pmoles/min/µg protein and 57.8765 pmoles/min/µg protein and 56.7739 pmoles/min/µg protein
OCR (PANC1 cells; time 27.58 min (I5) / 27.55 min (I6)): 66.0035 pmoles/min/µg protein and 58.3571 pmoles/min/µg protein and 57.0179 pmoles/min/µg protein
OCR (PANC1 cells; time 34.08 min (I5) / 34.04 min (I6)): 69.58 pmoles/min/µg protein and 62.2166 pmoles/min/µg protein and 61.4483 pmoles/min/µg protein
OCR (PANC1 cells; time 40.66 min (I5) / 40.6 min (I6)): 214.725 pmoles/min/µg protein and 187.294 pmoles/min/µg protein and 199.178 pmoles/min/µg protein
OCR (PANC1 cells; time 47.17 min (I5) / 47.09 min (I6)): 200.494 pmoles/min/µg protein and 175.489 pmoles/min/µg protein and 184.522 pmoles/min/µg protein
OCR (PANC1 cells; time 53.68 min (I5) / 53.58 min (I6)): 196.779 pmoles/min/µg protein and 170.973 pmoles/min/µg protein and 177.854 pmoles/min/µg protein
OCR (PANC1 cells; time 60.22 min (I5) / 60.14 min (I6)): 40.9467 pmoles/min/µg protein and 34.6667 pmoles/min/µg protein and 34.4666 pmoles/min/µg protein
OCR (PANC1 cells; time 66.71 min (I5) / 66.63 min (I6)): 41.5272 pmoles/min/µg protein and 35.8152 pmoles/min/µg protein and 35.5577 pmoles/min/µg protein
OCR (PANC1 cells; time 73.19 min (I5) / 73.15 min (I6)): 40.1567 pmoles/min/µg protein and 34.5626 pmoles/min/µg protein and 34.5904 pmoles/min/µg protein
ECAR, Mean (energy map) (MKN45 cells; MKN45 (with I5)): 17.85 mpH/min/absorbance
OCR, Mean (energy map) (MKN45 cells; MKN45 (with I5)): 73.36 pmol/min/absorbance
ECAR (energy map) (MKN45 cells; MKN45 (with I6)): 73.12 mpH/min/absorbance
ECAR, Mean (energy map) (MKN45 cells; MKN45 (with I6)): 230.729 mpH/min/absorbance
OCR (energy map) (MKN45 cells; MKN45 (with I6)): 230.7 pmol/min/absorbance
OCR, Mean (energy map) (MKN45 cells; MKN45 (with I6)): 73.1182 pmol/min/absorbance
ATP-product. coupled resp. (MKN45 cells; MKN45, IC50 24 h): 104.06 and 161.5 and 167.13
Basal resp. (MKN45 cells; MKN45, IC50 24 h): 127.94 and 199.95 and 209.1
Maximal resp. (MKN45 cells; MKN45, IC50 24 h): 239.39 and 365.62 and 377.71
SRC (MKN45 cells; MKN45, IC50 24 h): 111.45 and 165.66 and 168.61
effect on ECAR (MKN45 cells; MKN45, IC50 24 h): no apparent effect
OCR (MKN45 cells; MKN45, IC50 24 h, time 1.53 min (I5) / 1.53 min (I6)): 147.857 pmoles/min/µg protein and 218.375 pmoles/min/µg protein and 227.071 pmoles/min/µg protein
OCR (MKN45 cells; MKN45, IC50 24 h, time 8.04 min (I5) / 8.03 min (I6)): 138.707 pmoles/min/µg protein and 201.479 pmoles/min/µg protein and 205.427 pmoles/min/µg protein
OCR (MKN45 cells; MKN45, IC50 24 h, time 14.51 min (I5) / 14.5 min (I6)): 135.932 pmoles/min/µg protein and 195.066 pmoles/min/µg protein and 199.064 pmoles/min/µg protein
OCR (MKN45 cells; MKN45, IC50 24 h, time 21.06 min (I5) / 21.09 min (I6)): 69.6082 pmoles/min/µg protein and 82.0209 pmoles/min/µg protein and 78.1047 pmoles/min/µg protein
OCR (MKN45 cells; MKN45, IC50 24 h, time 27.57 min (I5) / 27.59 min (I6)): 57.4221 pmoles/min/µg protein and 74.9291 pmoles/min/µg protein and 73.3602 pmoles/min/µg protein
OCR (MKN45 cells; MKN45, IC50 24 h, time 34.08 min (I5) / 34.07 min (I6)): 57.8854 pmoles/min/µg protein and 73.9423 pmoles/min/µg protein and 73.7207 pmoles/min/µg protein
OCR (MKN45 cells; MKN45, IC50 24 h, time 40.66 min (I5) / 40.62 min (I6)): 219.523 pmoles/min/µg protein and 319.315 pmoles/min/µg protein and 325.525 pmoles/min/µg protein
OCR (MKN45 cells; MKN45, IC50 24 h, time 53.68 min (I5) / 53.58 min (I6)): 193.975 pmoles/min/µg protein and 265.77 pmoles/min/µg protein and 274.483 pmoles/min/µg protein
OCR (MKN45 cells; MKN45, IC50 24 h, time 60.27 min (I5) / 60.14 min (I6)): 39.9791 pmoles/min/µg protein and 45.1028 pmoles/min/µg protein and 42.2414 pmoles/min/µg protein
OCR (MKN45 cells; MKN45, IC50 24 h, time 66.75 min (I5) / 66.62 min (I6)): 39.1246 pmoles/min/µg protein and 45.4375 pmoles/min/µg protein and 44.5027 pmoles/min/µg protein
OCR (MKN45 cells; MKN45, IC50 24 h, time 73.23 min (I5) / 73.1 min (I6)): 38.1003 pmoles/min/µg protein and 46.0211 pmoles/min/µg protein and 46.1344 pmoles/min/µg protein
